Assay [1] concerns the target T1, 5-hydroxytryptamine receptor 3A (Homo sapiens, UniProt P46098).
T1 sequence (P46098 whole entry): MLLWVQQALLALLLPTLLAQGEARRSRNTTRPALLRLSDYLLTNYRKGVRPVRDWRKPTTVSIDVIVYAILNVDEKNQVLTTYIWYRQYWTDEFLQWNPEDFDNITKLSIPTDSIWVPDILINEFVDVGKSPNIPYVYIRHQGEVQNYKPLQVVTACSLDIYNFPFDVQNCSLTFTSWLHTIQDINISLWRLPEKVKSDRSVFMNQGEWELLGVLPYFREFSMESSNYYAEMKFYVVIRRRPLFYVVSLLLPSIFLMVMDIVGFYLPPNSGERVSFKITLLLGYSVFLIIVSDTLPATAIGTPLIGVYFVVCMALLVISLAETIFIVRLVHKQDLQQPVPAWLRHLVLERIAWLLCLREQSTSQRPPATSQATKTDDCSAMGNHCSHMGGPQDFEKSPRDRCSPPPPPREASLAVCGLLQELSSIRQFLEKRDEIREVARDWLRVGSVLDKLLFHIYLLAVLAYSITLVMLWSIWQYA
In kind it is functional.

The target in the next assay is Cannabinoid receptor 1 (Homo sapiens, UniProt P21554). In kind it is functional, cell-based.
Note: assay procedure not described here.

Cannabinoid receptor 1, sequence (P21554 whole entry): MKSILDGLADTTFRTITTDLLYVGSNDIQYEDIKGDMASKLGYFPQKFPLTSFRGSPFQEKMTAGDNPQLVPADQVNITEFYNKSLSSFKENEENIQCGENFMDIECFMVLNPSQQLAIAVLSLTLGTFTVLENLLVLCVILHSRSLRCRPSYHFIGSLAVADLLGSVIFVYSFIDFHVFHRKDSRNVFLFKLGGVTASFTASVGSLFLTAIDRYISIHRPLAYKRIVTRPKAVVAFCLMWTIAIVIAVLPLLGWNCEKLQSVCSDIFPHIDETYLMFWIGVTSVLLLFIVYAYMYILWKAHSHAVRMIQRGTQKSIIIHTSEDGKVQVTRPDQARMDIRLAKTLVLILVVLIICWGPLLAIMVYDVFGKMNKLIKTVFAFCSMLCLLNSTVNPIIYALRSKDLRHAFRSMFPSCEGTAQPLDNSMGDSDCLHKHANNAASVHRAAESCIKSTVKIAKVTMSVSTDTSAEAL

`C[C@H]1c2cccc(O)c2C(=O)C2=C(O)[C@]3(O)C(=O)C(C(N)=O)=C(O)[C@@H](N(C)C)[C@@H]3[C@@H](O)[C@@H]21` [DOXYCYCLINE]: the AC50 (in assay [1]; at Cannabinoid receptor 1) was greater than 30 µM in each case. As to `C=C[C@H]1C[N@@]2CC[C@H]1C[C@@H]2[C@@H](O)c1ccnc2ccc(OC)cc12` [QUINIDINE], the AC50 (in assay [1]; at Cannabinoid receptor 1) was greater than 30 µM each time. On to `CO[C@H]1/C=C/O[C@@]2(C)Oc3c(C)c(O)c4c(O)c(c(/C=N/N5CCN(C)CC5)c(O)c4c3C2=O)NC(=O)/C(C)=C\C=C\[C@H](C)[C@H](O)[C@@H](C)[C@@H](O)[C@@H](C)[C@H](OC(C)=O)[C@@H]1C` [RIFAMPIN], for which the AC50 was 5.2 µM in assay [1] and greater than 30 µM at Cannabinoid receptor 1. Consider `CN(C)CCc1c[nH]c2ccc(Cn3cncn3)cc12` [RIZATRIPTAN], for which the AC50 (in assay [1]; on Cannabinoid receptor 1) was greater than 30 µM in each case. Take `Nc1ccc(S(=O)(=O)Nc2nccs2)cc1` [SULFATHIAZOLE]: the half-maximal activity concentration (AC50) (in assay [1]; at Cannabinoid receptor 1) was greater than 30 µM throughout. `CCN(CC)CCNC(=O)c1c(C)[nH]c(/C=C2\C(=O)Nc3ccc(F)cc32)c1C` [SUNITINIB]: at Cannabinoid receptor 1, the half-maximal activity concentration (AC50) is greater than 30 µM. With `C[C@H](CCC(=O)O)[C@H]1CC[C@H]2[C@@H]3[C@@H](O)C[C@@H]4C[C@H](O)CC[C@]4(C)[C@H]3CC[C@]12C` [URSODIOL], the concentration at half-maximal activity (AC50) (in assay [1]; at Cannabinoid receptor 1) was greater than 30 µM each time.

The values are drawn from ChEMBL document CHEMBL5291721, “A preclinical secondary pharmacology resource illuminates target-adverse drug reaction associations of marketed drugs” (Nat Commun, 2023).
